According to ChEMBL document CHEMBL6096736, “Development of a Highly Selective Ferroptosis Inducer Targeting GPX4 with 2-Ethynylthiazole-4-carboxamide as Electrophilic Warhead” (J Med Chem, 2025):
The source made the active and inactive calls. No cut-off for these calls is given here.

Legend:
[1] = Clearance in male Sprague-Dawley rat at 20 mg/kg, po measured upto 36 hrs by LC-MS/MS analysis; assay type: ADME, organism-based; conditions: in vivo
[2] = Clearance in male Sprague-Dawley rat at 2 mg/kg, iv measured upto 36 hrs by LC-MS/MS analysis; assay type: ADME, organism-based; conditions: in vivo
CAL-27 = assay: Cytotoxicity against human CAL-27 cells
[3] = Half life in male Sprague-Dawley rat at 20 mg/kg, po measured upto 36 hrs by LC-MS/MS analysis; assay type: ADME, organism-based; conditions: in vivo
[4] = Acute toxicity in BALB/c mouse implanted with human HT-1080 cells assessed as change in AST level at 15 to 30 mg/kg, ip administered for 7 days; assay type: organism-based; conditions: in vivo, 168 h, dose 15-30 mg/kg, time 7 day
4T1 = assay: Cytotoxicity against mouse 4T1 cells
HT-1080 [5] = assay: Antitumor activity against human HT-1080 cells xenografted in BALB/c mouse assessed as tumor growth inhibition at 15 mg/kg, ip administered for 6 days and measured after 2 weeks; assay type: functional; conditions: HT-1080, 480 h, time 20 day, read-out: TGI
HT-1080 [6] = assay: Antitumor activity against human HT-1080 cells xenografted in BALB/c mouse assessed as reduction in tumor weight at 15 to 30 mg/kg, ip administered for 6 days and measured after 2 weeks; assay type: functional, organism-based; conditions: dose 15-30 mg/kg, time 20.0 day
[7] = Acute toxicity in BALB/c mouse implanted with human HT-1080 cells assessed as heart damage at 15 to 30 mg/kg, ip administered for 7 days by H and E staining based analysis; assay type: organism-based; conditions: in vivo, 168 h, dose 15-30 mg/kg, time 7 day
MCF7 = assay: Cytotoxicity against human MCF7 cells
[8] = Acute toxicity in BALB/c mouse implanted with human HT-1080 cells assessed as change in ALP level at 15 to 30 mg/kg, ip administered for 7 days; assay type: organism-based; conditions: in vivo, 168 h, dose 15-30 mg/kg, time 7 day
[9] = Acute toxicity in BALB/c mouse implanted with human HT-1080 cells assessed as spleen damage at 15 to 30 mg/kg, ip administered for 7 days by H and E staining based analysis; assay type: organism-based; conditions: in vivo, 168 h, dose 15-30 mg/kg, time 7 day
[10] = Acute toxicity in BALB/c mouse implanted with human HT-1080 cells assessed as liver damage at 15 to 30 mg/kg, ip administered for 7 days by H and E staining based analysis; assay type: organism-based; conditions: in vivo, 168 h, dose 15-30 mg/kg, time 7 day
[11] = Half life in male Sprague-Dawley rat at 2 mg/kg, iv measured upto 36 hrs by LC-MS/MS analysis; assay type: ADME, organism-based; conditions: in vivo
HT-1080 [12] = assay: Induction of ferroptosis in human HT-1080 cells assessed as reduction in cell viability incubated for 24 hrs in presence of Fer-1 by CCK-8 assay; conditions: HT-1080, 24 h
HT-1080 [13] = assay: Cytotoxicity against human HT-1080 cells assessed as cell survival incubated for 24 hrs in presence of DFO by CCK-8 assay; conditions: HT-1080, 24 h
[14] = Acute toxicity in BALB/c mouse implanted with human HT-1080 cells assessed as kidney damage at 15 to 30 mg/kg, ip administered for 7 days by H and E staining based analysis; assay type: organism-based; conditions: in vivo, 168 h, dose 15-30 mg/kg, time 7 day
[15] = Acute toxicity in BALB/c mouse implanted with human HT-1080 cells assessed as change in ALT level at 15 to 30 mg/kg, ip administered for 7 days; assay type: organism-based; conditions: in vivo, 168 h, dose 15-30 mg/kg, time 7 day
HT-1080 [16] = assay: Induction of morphological changes in human HT-1080 cells assessed as […] of mitochondria cristas by TEM analysis; assay type: functional, cell-based
[17] = Oral bioavailability in male Sprague-Dawley rat at 20 mg/kg measured upto 36 hrs by LC-MS/MS analysis; assay type: ADME, organism-based; conditions: in vivo
[18] = Cmax in male Sprague-Dawley rat at 2 mg/kg, iv measured upto 36 hrs by LC-MS/MS analysis; assay type: ADME, organism-based; conditions: in vivo
HT-1080 [19] = assay: Induction of ferroptosis in human HT-1080 cells assessed as increase in cellular MDA level at 0.1 uM incubated for 6 hrs; assay type: functional, cell-based
HT-1080 [20] = assay: Induction of morphological changes in human HT-1080 cells assessed as appearance of round shaped mitochondria by TEM analysis; assay type: functional, cell-based
HepG2 = assay: Cytotoxicity against human HepG2 cells
[21] = AUC (0 to t) in male Sprague-Dawley rat at 2 mg/kg, iv measured upto 36 hrs by LC-MS/MS analysis; assay type: ADME, organism-based; conditions: in vivo
HT-1080 [22] = assay: Cytotoxicity against human HT-1080 cells assessed as cell survival incubated for 24 hrs by CCK-8 assay; conditions: HT-1080, 24 h
[23] = AUC (0 to t) in male Sprague-Dawley rat at 20 mg/kg, po measured upto 36 hrs by LC-MS/MS analysis; assay type: ADME, organism-based; conditions: in vivo
[24] = Cytotoxicity against human LO2 cells; assay type: toxicity, cell-based, L02
[25] = Acute toxicity in BALB/c mouse implanted with human HT-1080 cells assessed as change in UREA level at 15 to 30 mg/kg, ip administered for 7 days; assay type: organism-based; conditions: in vivo, 168 h, dose 15-30 mg/kg, time 7 day
HT-1080 [26] = assay: Induction of ferroptosis in human HT-1080 cells assessed as increase in cellular ROS level at 0.1 uM incubated for 3 hrs by DCFH-DA staining based flow cytometry analysis; assay type: functional, cell-based
HT-1080 [27] = assay: Cytotoxicity against human HT-1080 cells assessed as cell viability incubated for 24 hrs by CCK-8 assay; conditions: HT-1080, 24 h
[28] = Toxicity in BALB/c mouse implanted with human HT-1080 cells assessed as change in body weight at 15 to 30 mg/kg, ip administered for 6 days and measured after 2 weeks; assay type: organism-based; conditions: in vivo, 480 h, dose 15-30 mg/kg, time 20 day
[29] = Acute toxicity in BALB/c mouse implanted with human HT-1080 cells assessed as lung damage at 15 to 30 mg/kg, ip administered for 7 days by H and E staining based analysis; assay type: organism-based; conditions: in vivo, 168 h, dose 15-30 mg/kg, time 7 day
HT-1080 [30] = assay: Antitumor activity against human HT-1080 cells xenografted in BALB/c mouse assessed as tumor growth inhibition at 30 mg/kg, ip administered for 6 days and measured after 2 weeks; assay type: functional; conditions: HT-1080, 480 h, time 20 day, read-out: TGI
[31] = Cmax in male Sprague-Dawley rat at 20 mg/kg, po measured upto 36 hrs by LC-MS/MS analysis; assay type: ADME, organism-based; conditions: in vivo
HT-1080 [32] = assay: Induction of ferroptosis in human HT-1080 cells assessed as increase in cellular LPO level at 0.1 uM incubated for 3 hrs by BIODPY-C11 probe based flow cytometry analysis; assay type: functional, cell-based
[33] = Acute toxicity in BALB/c mouse implanted with human HT-1080 cells assessed as change in CREA level at 15 to 30 mg/kg, ip administered for 7 days; assay type: organism-based; conditions: in vivo, 168 h, dose 15-30 mg/kg, time 7 day
HT-1080 [34] = assay: Cytotoxicity against human HT-1080 cells in presence of Z-VAD-FMK
HT-1080 [35] = assay: Induction of ferroptosis in human HT-1080 cells assessed as increase in cellular MDA level at 0.1 uM incubated for 6 hrs in presence of Fer-1; assay type: functional, cell-based

For `C#Cc1nc(C(=O)N(c2ccc(-c3cnco3)cc2)[C@@H](C(=O)NC(C)(C)C)c2csc3ccccc23)cs1`, the CL/F [1] was 5670 mL/min/kg, the clearance [2] was 282 mL/min/kg and the IC50 (CAL-27) was 2680 nM. For the same compound, the half-life [3] was 2.37 h, the Activity [4] was “Non-toxic” and the IC50 (4T1) was 89 nM. The inhibition in vivo at 15 mg/kg (HT-1080 [5]) was 36.5%, the Activity (HT-1080 [6]) was “Active” and the Activity [7] was “Non-toxic”. For the same compound, the IC50 (MCF7) was 451 nM, the Activity [8] was “Non-toxic” and the Activity [9] was “Non-toxic”. For the same compound, the Activity [10] was “Non-toxic”, the half-life [11] was 1.05 h and the IC50 (HT-1080 [12]) was 7480 nM. The IC50 (HT-1080 [13]) was 3950 nM, the Activity [14] was “Non-toxic” and the Activity [15] was “Non-toxic”. For the same compound, the Activity (HT-1080 [16]) was “Active”, the bioavailability [17] was 6.67% and the Cmax [18] was 271 ng/mL. The Activity (HT-1080 [19]) was “Active”, the Activity (HT-1080 [20]) was “Active” and the IC50 (HepG2) was 56 nM. The AUC(0-t) at 36 h [21] was 122 ng·h/mL, the IC50 (HT-1080 [22]) was 22 nM and the AUC(0-t) at 36 h [23] was 79.4 ng·h/mL. For the same compound, the IC50 [24] was 5140 nM, the Activity [25] was “Non-toxic” and the Activity (HT-1080 [26]) was “Active”. The IC50 (HT-1080 [27]) was 3 nM, the Activity [28] was “Non-toxic” and the Activity [29] was “Non-toxic”. The inhibition in vivo at 30 mg/kg (HT-1080 [30]) was 49.4%, the Cmax [31] was 20.8 ng/mL and the Activity (HT-1080 [32]) was “Active”. For the same compound, the Activity [33] was “Non-toxic”, the IC50 (HT-1080 [34]) was 0.2 nM and the Activity (HT-1080 [35]) was “Weak_effect”.
